Measurements published in ChEMBL document CHEMBL5608163, “Structure modification of anoplin for fighting resistant bacteria” (Eur J Med Chem, 2024).
Values after ≈ are worked out from the molar mass of the structure shown. Bridge positions count the residues as written; N and C are the ends. Square brackets hold non-standard residues; d marks the D form. Peptide text beside a SMILES is read from it. I, II: the chains in the order shown. * marks the point of attachment. 2Nal = N[C@@H](Cc1ccc2ccccc2c1)C(=O)O; Lauroyl = CCCCCCCCCCCC(=O)*; hSer = N[C@@H](CCO)C(=O)O; Octanoyl = CCCCCCCC(=O)*; Orn = NCCC[C@H](N)C(=O)O; Nva = CCC[C@H](N)C(=O)O; Hexanoyl = CCCCCC(=O)*; Butyryl = CCCC(=O)*

How the values were obtained:
[1] = tested on: Klebsiella pneumoniae; test: Antibacterial activity against Klebsiella pneumoniae ATCC 700603 assessed as reduction in bacterial cell growth incubated for 16 to 24 hrs by CLSI-protocol based Mueller-Hinton Broth micro-dilution method; type: functional; details: time 16-24 hrs
[2] = tested on: Bacillus subtilis; test: Antibacterial activity against Bacillus subtilis ATCC 23857 assessed as reduction in bacterial cell growth incubated for 16 to 24 hrs by CLSI-protocol based Mueller-Hinton Broth micro-dilution method; type: functional; details: time 16-24 hrs
[3] = tested on: Staphylococcus aureus; test: Antibacterial activity against Staphylococcus aureus ATCC 25923 assessed as reduction in bacterial cell growth incubated for 16 to 24 hrs by CLSI-protocol based Mueller-Hinton Broth micro-dilution method; type: functional; details: time 16-24 hrs
[4] = tested on: Escherichia coli; test: Antibacterial activity against Escherichia coli ATCC 25922 assessed as reduction in bacterial cell growth incubated for 16 to 24 hrs by CLSI-protocol based Mueller-Hinton Broth micro-dilution method; type: functional; details: time 16-24 hrs
[5] = tested on: Pseudomonas aeruginosa; test: Antibacterial activity against Pseudomonas aeruginosa ATCC 27853 assessed as reduction in bacterial cell growth incubated for 16 to 24 hrs by CLSI-protocol based Mueller-Hinton Broth micro-dilution method; type: functional; details: time 16-24 hrs
[6] = tested on: Escherichia coli; test: Antimicrobial activity against Escherichia coli ATCC 25922 assessed as reduction in microbial growth measured after 24 hrs by CLSI based broth microdilution method; type: functional
[7] = tested on: Erythrocyte; test: Hemolytic activity in human erythrocytes incubated for 1 hr by ELISA reader analysis; type: toxicity, cell-based

Row | SMILES | MIC [1] | MIC [2] | MIC [3] | MIC [4] | MIC [5] | MIC [6] | HC10 [7]
1 | CCCCCC(=O)NCC(=O)N[C@@H](CC(C)C)C(=O)N[C@@H](CC(C)C)C(=O)N[C@@H](CCCCN)C(=O)N[C@@H](CCCNC(=N)N)C(=O)N[C@H](C(=O)N[C@@H](CCCCN)C(=O)N[C@H](C(=O)N[C@@H](CC(C)C)C(=O)N[C@@H](CC(C)C)C(=O)NCCCC[C@H](NC(=O)[C@H](CCCCNC(=O)[C@H](CC(C)C)NC(=O)[C@H](CC(C)C)NC(=O)[C@@H](NC(=O)[C@H](CCCCN)NC(=O)[C@@H](NC(=O)[C@H](CCCNC(=N)N)NC(=O)[C@H](CCCCN)NC(=O)[C@H](CC(C)C)NC(=O)[C@H](CC(C)C)NC(=O)CNC(=O)CCCCC)[C@@H](C)CC)[C@@H](C)O)NC(=O)[C@H](CC(C)C)NC(=O)[C@H](CC(C)C)NC(=O)[C@@H](NC(=O)[C@H](CCCCN)NC(=O)[C@@H](NC(=O)[C@H](CCCNC(=N)N)NC(=O)[C@H](CCCCN)NC(=O)[C@H](CC(C)C)NC(=O)[C@H](CC(C)C)NC(=O)CNC(=O)CCCCC)[C@@H](C)CC)[C@@H](C)O)C(N)=O)[C@@H](C)O)[C@@H](C)CC (I: Hexanoyl-GLLKRIKTLLKK-NH2 / II: Hexanoyl-GLLKRIKTLL / III: Hexanoyl-GLLKRIKTLL; amide I:11-III:C, I:12-II:C) | 32 µM (≈ 127 µg/mL) | 8 µM (≈ 31.8 µg/mL) | 16 µM (≈ 63.6 µg/mL) | 16 µM (≈ 63.6 µg/mL) | 8 µM (≈ 31.8 µg/mL) |  | 
2 | CCCCCCCCCCCC(=O)NCC(=O)N[C@@H](CC(C)C)C(=O)N[C@@H](CC(C)C)C(=O)N[C@@H](CCCCN)C(=O)N[C@@H](CCCNC(=N)N)C(=O)N[C@H](C(=O)N[C@@H](CCCCN)C(=O)N[C@H](C(=O)N[C@@H](CC(C)C)C(=O)N[C@@H](CC(C)C)C(=O)NCCCC[C@H](NC(=O)[C@H](CCCCNC(=O)[C@H](CC(C)C)NC(=O)[C@H](CC(C)C)NC(=O)[C@@H](NC(=O)[C@H](CCCCN)NC(=O)[C@@H](NC(=O)[C@H](CCCNC(=N)N)NC(=O)[C@H](CCCCN)NC(=O)[C@H](CC(C)C)NC(=O)[C@H](CC(C)C)NC(=O)CNC(=O)CCCCCCCCCCC)[C@@H](C)CC)[C@@H](C)O)NC(=O)[C@H](CC(C)C)NC(=O)[C@H](CC(C)C)NC(=O)[C@@H](NC(=O)[C@H](CCCCN)NC(=O)[C@@H](NC(=O)[C@H](CCCNC(=N)N)NC(=O)[C@H](CCCCN)NC(=O)[C@H](CC(C)C)NC(=O)[C@H](CC(C)C)NC(=O)CNC(=O)CCCCCCCCCCC)[C@@H](C)CC)[C@@H](C)O)C(N)=O)[C@@H](C)O)[C@@H](C)CC (I: Lauroyl-GLLKRIKTLLKK-NH2 / II: Lauroyl-GLLKRIKTLL / III: Lauroyl-GLLKRIKTLL; amide I:11-III:C, I:12-II:C) | 64 µM (≈ 271 µg/mL) | 256 µM (≈ 1080 µg/mL) | 64 µM (≈ 271 µg/mL) | 64 µM (≈ 271 µg/mL) | 64 µM (≈ 271 µg/mL) |  | 
3 | CC[C@H](C)[C@H](NC(=O)[C@H](CCCNC(=N)N)NC(=O)[C@H](CCCCN)NC(=O)[C@H](CC(C)C)NC(=O)[C@H](CC(C)C)NC(=O)CN)C(=O)N[C@@H](CCCCN)C(=O)N[C@H](C(=O)N[C@@H](CC(C)C)C(=O)N[C@@H](CC(C)C)C(=O)NCCCC[C@H](NC(=O)[C@H](CCCCNC(=O)[C@H](CC(C)C)NC(=O)[C@H](CC(C)C)NC(=O)[C@@H](NC(=O)[C@H](CCCCN)NC(=O)[C@@H](NC(=O)[C@H](CCCNC(=N)N)NC(=O)[C@H](CCCCN)NC(=O)[C@H](CC(C)C)NC(=O)[C@H](CC(C)C)NC(=O)CN)[C@@H](C)CC)[C@@H](C)O)NC(=O)[C@H](CC(C)C)NC(=O)[C@H](CC(C)C)NC(=O)[C@@H](NC(=O)[C@H](CCCCN)NC(=O)[C@@H](NC(=O)[C@H](CCCNC(=N)N)NC(=O)[C@H](CCCCN)NC(=O)[C@H](CC(C)C)NC(=O)[C@H](CC(C)C)NC(=O)CN)[C@@H](C)CC)[C@@H](C)O)C(N)=O)[C@@H](C)O (I: H-GLLKRIKTLLKK-NH2 / II: H-GLLKRIKTLL / III: H-GLLKRIKTLL; amide I:11-III:C, I:12-II:C) | 4 µM (≈ 14.7 µg/mL) | 4 µM (≈ 14.7 µg/mL) | 4 µM (≈ 14.7 µg/mL) | 8 µM (≈ 29.5 µg/mL) | 4 µM (≈ 14.7 µg/mL) |  | 
4 | CCCCCCCC(=O)NCC(=O)N[C@@H](CC(C)C)C(=O)N[C@@H](CC(C)C)C(=O)N[C@@H](CCCCN)C(=O)N[C@@H](CCCNC(=N)N)C(=O)N[C@H](C(=O)N[C@@H](CCCCN)C(=O)N[C@H](C(=O)N[C@@H](CC(C)C)C(=O)N[C@@H](CC(C)C)C(=O)NCCCC[C@H](NC(=O)[C@H](CCCCNC(=O)[C@H](CC(C)C)NC(=O)[C@H](CC(C)C)NC(=O)[C@@H](NC(=O)[C@H](CCCCN)NC(=O)[C@@H](NC(=O)[C@H](CCCNC(=N)N)NC(=O)[C@H](CCCCN)NC(=O)[C@H](CC(C)C)NC(=O)[C@H](CC(C)C)NC(=O)CNC(=O)CCCCCCC)[C@@H](C)CC)[C@@H](C)O)NC(=O)[C@H](CC(C)C)NC(=O)[C@H](CC(C)C)NC(=O)[C@@H](NC(=O)[C@H](CCCCN)NC(=O)[C@@H](NC(=O)[C@H](CCCNC(=N)N)NC(=O)[C@H](CCCCN)NC(=O)[C@H](CC(C)C)NC(=O)[C@H](CC(C)C)NC(=O)CNC(=O)CCCCCCC)[C@@H](C)CC)[C@@H](C)O)C(N)=O)[C@@H](C)O)[C@@H](C)CC (I: Octanoyl-GLLKRIKTLLKK-NH2 / II: Octanoyl-GLLKRIKTLL / III: Octanoyl-GLLKRIKTLL; amide I:11-III:C, I:12-II:C) | 128 µM (≈ 520 µg/mL) | 32 µM (≈ 130 µg/mL) | 32 µM (≈ 130 µg/mL) | 32 µM (≈ 130 µg/mL) | 32 µM (≈ 130 µg/mL) |  | 
5 | CCCC(=O)NCC(=O)N[C@@H](CC(C)C)C(=O)N[C@@H](CC(C)C)C(=O)N[C@@H](CCCCN)C(=O)N[C@@H](CCCNC(=N)N)C(=O)N[C@H](C(=O)N[C@@H](CCCCN)C(=O)N[C@H](C(=O)N[C@@H](CC(C)C)C(=O)N[C@@H](CC(C)C)C(=O)NCCCC[C@H](NC(=O)[C@H](CCCCNC(=O)[C@H](CC(C)C)NC(=O)[C@H](CC(C)C)NC(=O)[C@@H](NC(=O)[C@H](CCCCN)NC(=O)[C@@H](NC(=O)[C@H](CCCNC(=N)N)NC(=O)[C@H](CCCCN)NC(=O)[C@H](CC(C)C)NC(=O)[C@H](CC(C)C)NC(=O)CNC(=O)CCC)[C@@H](C)CC)[C@@H](C)O)NC(=O)[C@H](CC(C)C)NC(=O)[C@H](CC(C)C)NC(=O)[C@@H](NC(=O)[C@H](CCCCN)NC(=O)[C@@H](NC(=O)[C@H](CCCNC(=N)N)NC(=O)[C@H](CCCCN)NC(=O)[C@H](CC(C)C)NC(=O)[C@H](CC(C)C)NC(=O)CNC(=O)CCC)[C@@H](C)CC)[C@@H](C)O)C(N)=O)[C@@H](C)O)[C@@H](C)CC (I: Butyryl-GLLKRIKTLLKK-NH2 / II: Butyryl-GLLKRIKTLL / III: Butyryl-GLLKRIKTLL; amide I:11-III:C, I:12-II:C) | 4 µM (≈ 15.6 µg/mL) | 4 µM (≈ 15.6 µg/mL) | 4 µM (≈ 15.6 µg/mL) | 4 µM (≈ 15.6 µg/mL) | 2 µM (≈ 7.79 µg/mL) |  | 
6 | CC[C@H](C)[C@H](NC(=O)[C@H](CCCNC(=N)N)NC(=O)[C@H](CCO)NC(=O)[C@H](CC(C)C)NC(=O)[C@H](CC(C)C)NC(=O)CN)C(=O)N[C@@H](CCCCN)C(=O)N[C@H](C(=O)N[C@@H](CC(C)C)C(=O)N[C@@H](CC(C)C)C(N)=O)[C@@H](C)O (H-GLL[hSer]RIKTLL-NH2) |  |  |  |  |  | 150 µM | > 500 µM
7 | CC(C)C[C@H](NC(=O)[C@H](C)NC(=O)CN)C(=O)N[C@@H](CCCCN)C(=O)N[C@@H](CCCNC(=N)N)C(=O)N[C@@H](Cc1ccc2ccccc2c1)C(=O)N[C@@H](CCCCN)C(=O)N[C@H](C(=O)N[C@@H](CC(C)C)C(=O)N[C@@H](C)C(N)=O)[C@@H](C)O (H-GALKR[2Nal]KTLA-NH2) |  |  |  |  |  | > 200 µM | > 500 µM
8 | CC[C@H](C)[C@H](NC(=O)[C@H](CCCNC(=N)N)NC(=O)[C@H](CCCCN)NC(=O)[C@H](CC(C)C)NC(=O)[C@H](CCSC)NC(=O)CN)C(=O)N[C@@H](CCCCN)C(=O)N[C@H](C(=O)N[C@@H](CC(C)C)C(=O)N[C@@H](CC(C)C)C(N)=O)[C@@H](C)O (H-GMLKRIKTLL-NH2) |  |  |  |  |  | 200 µM | 400 µM
9 | CC[C@H](C)[C@H](NC(=O)[C@H](CCCNC(=N)N)NC(=O)[C@H](CCCCN)NC(=O)[C@H](CC(C)C)NC(=O)[C@H](COC)NC(=O)CN)C(=O)N[C@@H](CCCCN)C(=O)N[C@H](C(=O)N[C@@H](CC(C)C)C(=O)N[C@@H](COC)C(N)=O)[C@@H](C)O (H-GS(Me)LKRIKTLS(Me)-NH2) |  |  |  |  |  | > 200 µM | > 500 µM
10 | CC[C@H](C)[C@H](NC(=O)[C@H](CCCNC(=N)N)NC(=O)[C@H](CCCN)NC(=O)[C@H](CC(C)C)NC(=O)[C@H](CC(C)C)NC(=O)CN)C(=O)N[C@@H](CCCCN)C(=O)N[C@H](C(=O)N[C@@H](CC(C)C)C(=O)N[C@@H](CC(C)C)C(N)=O)[C@@H](C)O (H-GLL[Orn]RIKTLL-NH2) |  |  |  |  |  | 100 µM | > 500 µM
11 | CCC[C@H](NC(=O)[C@H](CC(C)C)NC(=O)[C@@H](NC(=O)[C@H](CCCCN)NC(=O)[C@@H](NC(=O)[C@H](CCCNC(=N)N)NC(=O)[C@H](CCCCN)NC(=O)[C@H](CC(C)C)NC(=O)[C@H](CCC)NC(=O)CN)[C@@H](C)CC)[C@@H](C)O)C(N)=O (H-G[Nva]LKRIKTL[Nva]-NH2) |  |  |  |  |  | > 200 µM | > 500 µM
12 | CC[C@H](C)[C@H](NC(=O)[C@H](CCCNC(=N)N)NC(=O)[C@H](CCCCN)NC(=O)[C@H](CC(C)C)NC(=O)[C@@H](NC(=O)CN)C(C)C)C(=O)N[C@@H](CCCCN)C(=O)N[C@H](C(=O)N[C@@H](CC(C)C)C(=O)N[C@H](C(N)=O)C(C)C)[C@@H](C)O (H-GVLKRIKTLV-NH2) |  |  |  |  |  | > 200 µM | > 500 µM
